{"source": "patent US11957684B2", "about": "“Treatment of heavy menstrual bleeding associated with uterine fibroids” (Sumitomo Pharma Switzerland GmbH, priority 2016, dated 2024)", "test_system": "heavy menstrual bleeding associated with uterine fibroids", "experiment": "Example 5A 12-week placebo-controlled study in uterine fibroids: efficacy (PBAC, volumes, NRS, UFS-QOL, anemia parameters)", "type": "in vivo, human", "method": "Study participants were Japanese women with HMB (heavy menstrual bleeding) associated with UF (uterine fibroids).\nOnly the largest myomas among those measurable at Visit 1 were measured throughout the study.\nDuring the period between Visit 2 and 3, in which subjects must have experienced at least 1 regular menstrual cycle, the baseline values concerning efficacy evaluation, including PBAC scores and pain symptoms, were collected. The baseline PBAC score is the total PBAC score for the entire menstrual cycle immediately before Visit 3.\nVisit 3 was on Days 1 to 5 of the second menstrual cycle after Visit 1. From Visits 3 to 7, subjects tried to visit the clinics in a fasted state and before taking the study drug.\nWhen a dose was missed before breakfast, subjects took the study drug 30 minutes before either dinner or lunch on the same day.\nPain symptoms, other clinical symptoms and QOL were measured as secondary endpoints. Pain symptoms were evaluated in the patient diary from Visit 1 to the day before Visit 7 using the NRS score. The UFS-QOL score was used to evaluate other clinical symptoms and the QOL of subjects. Subjects completed the UFS-QOL questionnaire at Visits 3, 5, 6 and 7.\nIn particular, FIGS. 50-52 tabulate hemoglobin concentrations; FIG. 53 tabulates hematocrit percentages; FIG. 54 tabulates serum iron concentrations; and FIG. 55 tabulates ferritin concentrations.\nPBAC scores were used in Example 5A, and provide an estimate of menstrual blood loss volume. The PBAC score was evaluated by having subjects record details related to menstrual blood loss on a PBAC score sheet distributed by the sponsor during the treatment period. […] These items represent the level of stained sanitary materials over the course of a menstrual cycle, with a total score ranging from 0 (none) to infinity. Higher scores indicate heavier blood loss. The PBAC score sheet also allows subjects to indicate: whether they experienced bleeding between periods that required sanitary protection; whether they passed clots, and if so, approximate size of the clots; whether they experienced episodes of flooding; and whether they required double protection (used both a pad and tampon simultaneously). As used in the PBAC score sheet of Example 5A, flooding is defined as overflowing, or staining, of clothing or underwear due to menstrual bleeding.\nThe total PBAC score was derived by summing points for each of the above.\nAll myoma and uterine volumes referred to herein were evaluated using transvaginal ultrasound. Specifically, the myoma volumes were calculated using the following formula: D1×D2×D3×π/6, where D1 is the longest diameter of the myoma; D2 is the longest diameter of the myoma at an angle perpendicular to D1; and D3 is the diameter of the myoma crossing the intersection of D1 and D2 perpendicular to the D1/D2 plane.", "key": {"[1]": {"conditions": "10 mg, Week 6-12, listed as Relugolix"}, "[2]": {"conditions": "10 mg, Week 12, listed as Relugolix"}, "[3]": {"conditions": "20 mg, Week 6-12, listed as Relugolix"}}}
{"smiles": "CONC(=O)Nc1ccc(-c2sc3c(c2CN(C)C)c(=O)n(-c2ccc(OC)nn2)c(=O)n3Cc2c(F)cccc2F)cc1", "note": "[Compound 1, N-(4-(1-(2,6-difluorobenzyl)-5-((dimethylamino)methyl)-3-(6-methoxy-3-pyridazinyl)-2,4-dioxo-1,2,3,4-tetrahydrothieno[2,3-d]pyrimidin-6-yl)phenyl)-N′-methoxyurea]", "values": [{"measurement": "Amenorrhea (PBAC from Week 6 to 12 was 0), number of patients", "setting": "10 mg (n = 48)", "value": 8, "unit": "n"}, {"measurement": "complete response rate, uterine fibroids", "setting": "10 mg or 20 mg", "value": "21-44%"}, {"measurement": "myoma volume", "setting": "10 mg, Week 2", "value": "116.68±152.833", "unit": "cm^3"}, {"measurement": "uterine volume", "setting": "10 mg, Week 2", "value": "305.07±265.810", "unit": "cm^3"}, {"measurement": "NRS score", "setting": "10 mg, Week 2-6", "value": "0.67±1.228"}, {"measurement": "subjects who achieved amenorrhea (PBAC = 0)", "setting": "10 mg, Week 2-6", "value": 12.5, "unit": "%"}, {"measurement": "subjects with total PBAC score <10", "setting": "10 mg, Week 2-6", "value": 16.7, "unit": "%"}, {"measurement": "NRS score", "setting": "10 mg, Week 2-12", "value": "0.63±1.217"}, {"measurement": "subjects who achieved amenorrhea (PBAC = 0)", "setting": "10 mg, Week 2-12", "value": 10.4, "unit": "%"}, {"measurement": "subjects with total PBAC score <10", "setting": "10 mg, Week 2-12", "value": 12.5, "unit": "%"}, {"measurement": "Fe value (serum iron)", "setting": "10 mg, Week 4", "value": "72.8 ± 40.58", "unit": "µg/dL"}, {"measurement": "Ht value", "setting": "10 mg, Week 4", "value": "39.48±3.327", "unit": "%"}, {"measurement": "UFS-QOL HRQL total score", "setting": "10 mg, Week 4", "value": "11.28±10.342"}, {"measurement": "UFS-QOL symptom severity score", "setting": "10 mg, Week 4", "value": "23.78±14.736"}, {"measurement": "ferritin value", "setting": "10 mg, Week 4", "value": "14.71 ± 16.372", "unit": "ng/mL"}, {"measurement": "myoma volume", "setting": "10 mg, Week 4", "value": "90.89±108.009", "unit": "cm^3"}, {"measurement": "uterine volume", "setting": "10 mg, Week 4", "value": "258.10±171.703", "unit": "cm^3"}, {"measurement": "change of total PBAC score from baseline", "setting": "10 mg, Week 6-12", "value": "−1.4±222.94"}, {"measurement": "subjects who achieved amenorrhea (PBAC = 0)", "setting": "10 mg, Week 6-12", "value": 16.7, "unit": "%"}, {"measurement": "subjects with total PBAC score <10", "setting": "10 mg, Week 6-12", "value": 20.8, "unit": "%"}, {"measurement": "total PBAC score (mean±SD)", "setting": "10 mg, Week 6-12", "value": "268.0±276.37"}, {"measurement": "NRS score", "setting": "[1]", "value": 0.6}, {"measurement": "subjects who achieved amenorrhea (PBAC = 0)", "setting": "[1]", "value": "(16.7) %"}, {"measurement": "Fe value (serum iron)", "setting": "10 mg, Week 8", "value": "67.3 ± 34.74", "unit": "µg/dL"}, {"measurement": "Ht value", "setting": "10 mg, Week 8", "value": "39.43±3.154", "unit": "%"}, {"measurement": "UFS-QOL HRQL total score", "setting": "10 mg, Week 8", "value": "13.39±13.179"}, {"measurement": "UFS-QOL symptom severity score", "setting": "10 mg, Week 8", "value": "24.55±16.105"}, {"measurement": "myoma volume", "setting": "10 mg, Week 8", "value": "97.47±117.339", "unit": "cm^3"}, {"measurement": "uterine volume", "setting": "10 mg, Week 8", "value": "259.64±190.452", "unit": "cm^3"}, {"measurement": "Fe value (serum iron)", "setting": "10 mg, Week 12", "value": "75.3 ± 46.94", "unit": "µg/dL"}, {"measurement": "Ht value", "setting": "10 mg, Week 12", "value": "39.37±3.639", "unit": "%"}, {"measurement": "UFS-QOL HRQL total score", "setting": "10 mg, Week 12", "value": "13.01±13.270"}, {"measurement": "UFS-QOL HRQL total, change from baseline", "setting": "10 mg, Week 12", "value": "−1.61±10.586"}, {"measurement": "UFS-QOL symptom severity score", "setting": "10 mg, Week 12", "value": "23.28±16.053"}, {"measurement": "UFS-QOL symptom severity, change from baseline", "setting": "10 mg, Week 12", "value": "−6.51±18.122"}, {"measurement": "change of Fe value from baseline", "setting": "10 mg, Week 12", "value": "11.0 ± 42.94", "unit": "µg/dL"}, {"measurement": "change of Hb from baseline", "setting": "10 mg, Week 12", "value": "0.35 ± 1.055", "unit": "g/dL"}, {"measurement": "change of Ht value from baseline", "setting": "10 mg, Week 12", "value": "0.77±2.792", "unit": "%"}, {"measurement": "change of ferritin value from baseline", "setting": "10 mg, Week 12", "value": "-2.56 ± 6.833", "unit": "ng/mL"}, {"measurement": "ferritin value", "setting": "10 mg, Week 12", "value": "10.81 ± 9.489", "unit": "ng/mL"}, {"measurement": "myoma volume", "setting": "10 mg, Week 12", "value": "97.09±126.578", "unit": "cm^3"}, {"measurement": "percent change of myoma volume from baseline", "setting": "10 mg, Week 12", "value": "−22.63±29.539", "unit": "%"}, {"measurement": "percent change of uterine volume from baseline", "setting": "10 mg, Week 12", "value": "−12.10±29.936", "unit": "%"}, {"measurement": "uterine volume", "setting": "10 mg, Week 12", "value": "252.93±175.064", "unit": "cm^3"}, {"measurement": "UFS-QOL HRQL total, change from baseline", "setting": "[2]", "value": "−2"}, {"measurement": "UFS-QOL symptom severity, change from baseline", "setting": "[2]", "value": "−7"}, {"measurement": "change of Hb from baseline", "setting": "[2]", "value": 0.3, "unit": "g/dL"}, {"measurement": "percent change of myoma volume from baseline", "setting": "[2]", "value": "−23", "unit": "%"}, {"measurement": "percent change of uterine volume from baseline", "setting": "[2]", "value": "−12", "unit": "%"}, {"measurement": "Amenorrhea (PBAC from Week 6 to 12 was 0), number of patients", "setting": "20 mg (n = 56)", "value": 21, "unit": "n"}, {"measurement": "myoma volume", "setting": "20 mg, Week 2", "value": "98.63±112.118", "unit": "cm^3"}, {"measurement": "uterine volume", "setting": "20 mg, Week 2", "value": "294.81±269.990", "unit": "cm^3"}, {"measurement": "NRS score", "setting": "20 mg, Week 2-6", "value": "0.48±0.970"}, {"measurement": "subjects who achieved amenorrhea (PBAC = 0)", "setting": "20 mg, Week 2-6", "value": 33.9, "unit": "%"}, {"measurement": "subjects with total PBAC score <10", "setting": "20 mg, Week 2-6", "value": 42.9, "unit": "%"}, {"measurement": "NRS score", "setting": "20 mg, Week 2-12", "value": "0.44±0.855"}, {"measurement": "subjects who achieved amenorrhea (PBAC = 0)", "setting": "20 mg, Week 2-12", "value": 28.6, "unit": "%"}, {"measurement": "subjects with total PBAC score <10", "setting": "20 mg, Week 2-12", "value": 32.1, "unit": "%"}, {"measurement": "Fe value (serum iron)", "setting": "20 mg, Week 4", "value": "77.4 ± 49.74", "unit": "µg/dL"}, {"measurement": "Ht value", "setting": "20 mg, Week 4", "value": "40.06±3.773", "unit": "%"}, {"measurement": "UFS-QOL HRQL total score", "setting": "20 mg, Week 4", "value": "11.10±13.829"}, {"measurement": "UFS-QOL symptom severity score", "setting": "20 mg, Week 4", "value": "23.12±14.327"}, {"measurement": "ferritin value", "setting": "20 mg, Week 4", "value": "14.77 ± 11.536", "unit": "ng/mL"}, {"measurement": "myoma volume", "setting": "20 mg, Week 4", "value": "101.51±132.419", "unit": "cm^3"}, {"measurement": "uterine volume", "setting": "20 mg, Week 4", "value": "291.73±327.844", "unit": "cm^3"}, {"measurement": "NRS score", "setting": "20 mg, Week 6-12", "value": "0.35±0.618"}, {"measurement": "change of total PBAC score from baseline", "setting": "20 mg, Week 6-12", "value": "−153.0±194.83"}, {"measurement": "subjects who achieved amenorrhea (PBAC = 0)", "setting": "20 mg, Week 6-12", "value": 38.2, "unit": "%"}, {"measurement": "subjects with total PBAC score <10", "setting": "20 mg, Week 6-12", "value": 43.6, "unit": "%"}, {"measurement": "NRS score", "setting": "[3]", "value": 0.4}, {"measurement": "subjects who achieved amenorrhea (PBAC = 0)", "setting": "[3]", "value": "(38.2) %"}, {"measurement": "Fe value (serum iron)", "setting": "20 mg, Week 8", "value": "84.2 ± 49.42", "unit": "µg/dL"}, {"measurement": "Ht value", "setting": "20 mg, Week 8", "value": "40.39±3.389", "unit": "%"}]}
